“Also recorded” adds a separate entry of the source. Where a SMILES comes first, the peptide text is derived from it. Bridges are numbered along the chain shown (N, C = ends).
Columns and labels:
TC-1 tumor = assay: TC-1 subcutaneous tumor model in C57BL/6 mice; assay type: in vivo; conditions: 80 μM, intratumoral route
Protocol: Six-to-eight weeks-old, C57BL/6 female mice of 22 g of weight were supplied by the National Center for Laboratory Animal Production (CENPALAB, Havana, Cuba) and housed under pathogen-free conditions at the Bioterium of the Center for Genetic Engineering and Biotechnology (CIGB). Experiments were carried out in agreement with regulations for proper handling and care of laboratory animals. Tumor volume was measured on each case (estimated by the formula: volume=a^2×(b/2), where a is the width and b is the length of the tumor) and animal survival was evaluated.
Survival was compared between groups by the Logrank test. The statistic parameters were obtained with the aid of the GraphPad Prism 4.0 software (GraphPad Software, San Diego, Calif., USA).
C57BL/6 mice were injected in the right flank by subcutaneous route (s.c.) with 50 000 TC-1 cells. When tumors were detectable, mice were randomized into treatment groups to evaluate the treatment with the peptides subject of study, to evaluate them by different administration routes. Tumor-bearing animals received 6 administrations in alternate days, with 80 μM of the subject peptide, solely received the vehicle as control. Five mice were used for each group. Animals were housed under pathogen-free conditions, and procedures were conducted in agreement with good practices for laboratory animal handling and care.

[1] = test system: human tumor cell lines (A549, A375, PC-3, U87); conditions: peptide combined with prodigiosin
primary fibroblasts = conditions: peptide combined with prodigiosin
human tumor cells = assay: Cytotoxic activity screening of peptide library on human tumor cell lines, SRB method; assay type: cell-based; conditions: SRB method; cytotoxic = dose-dependent 50% inhibition of proliferation, GI50 below 100 μM in at least one cell line
Protocol: (§1) Negative control cells were cultured on a volume of vehicle equal to that of the experimental samples. An “x-y” curve (dose-response) was established with the percent of surviving cells, compared in respect to the negative control cells, and the following parameters were estimated: 50% growth inhibition (GI50); Total growth inhibition (TGI); and the lethal concentration 50 (LC50), that is the concentration causing the 50% of cell death (Boyd M R, Paull K D, and Rubinstein L R (1992) “Data display and analysis strategies for the NCI Disease Oriented In-Vitro Antitumor Drug Screen, in Cytotoxic Anticancer Drugs: Models and Concept for Drug Discovery and Development” (Baleriote F A, Corbett T H and Baker L H eds) pp 11-34, Kluwer Academia Publishers, Boston).
(§2) Were considered as cytotoxic peptides all those peptides being able of inhibiting 50% of the cellular proliferation, in a dose-dependent manner, and showing GI50 values below 100 μM, at least in one of the cell lines studied. The human tumor cell lines used were: HEp-2 (larynx carcinoma), A549 (lung epithelial adenocarcinoma), M14 (melanoma), Colo 205 (colon adenocarcinoma), Ls174T (colon adenocarcinoma), LnCAP (prostate carcinoma), PC-3 (prostate carcinoma) and H 125 (non-small cell lung adenocarcinoma). Represented are primary sequences for the designed peptides, the code used for its generation and their respective cytotoxic capacity on human tumor cells.

M14 (melanoma) = assay: SRB cytotoxicity on M14 melanoma cells; assay type: cell-based; conditions: M14 human melanoma cells
Protocol: as §1, §2
The inability of peptide N06P89 (cyclized by two cysteins located at both N- and C-termini) to inhibit cellular proliferation in M14 human melanoma tumor cells is shown in FIG. 7. […] At the same FIG. 7, it is also shown the need for blocking the C-terminus (for example, an amide group or other modification) to achieve the cytotoxic capacity expected for the peptide region of interest.

CC(C)C[C@@H]1NC(=O)[C@H](Cc2ccccc2)NC(=O)[C@H](CC(=O)O)NC(=O)[C@H](CCCNC(=N)N)NC(=O)CNC(=O)[C@H]([C@@H](C)O)NC(=O)[C@H](CC(N)=O)NC(=O)[C@@H](NC(=O)[C@H](CC(N)=O)NC(=O)[C@H](Cc2ccccc2)NC(=O)CNC(=O)[C@H](Cc2ccc(O)cc2)NC(=O)[C@@H](NC(=O)[C@@H](NC(=O)[C@H](CC(=O)O)NC(=O)CN)[C@@H](C)O)C(C)C)CSSC[C@@H](C(=O)N[C@H](C(=O)N[C@H](C(=O)N[C@@H](CO)C(N)=O)[C@@H](C)O)[C@@H](C)O)NC1=O [Peptide A08P28s-s] (H-GDTVYGFNCNTGRDFLCTTS-NH2; disulfide 9-17)
survival (TC-1 tumor): intermediate survival block
GI50 values [1]: nm range
effect on the cytotoxic activity of prodigiosin [1]: enhanced
decrease of the cytotoxic activity of prodigiosin on primary fibroblasts (primary fibroblasts): at least one order of magnitude

CC[C@H](C)[C@H](NC(=O)[C@H](CC(N)=O)NC(=O)[C@@H](NC(=O)[C@H](CO)NC(=O)[C@H](CC(C)C)NC(=O)[C@H](CC(=O)O)NC(=O)[C@@H](NC(=O)[C@@H](NC(=O)[C@H](CC(N)=O)NC(=O)[C@H](CO)NC(=O)[C@H](CO)NC(=O)[C@H](C)NC(=O)[C@@H](N)CC(N)=O)C(C)C)[C@@H](C)O)C(C)C)C(=O)NCC(=O)NCC(=O)N[C@@H](Cc1c[nH]cn1)C(=O)N[C@@H](CCC(N)=O)C(=O)N[C@@H](C)C(=O)N1CCC[C@H]1C(=O)N[C@@H](CC(=O)O)C(N)=O [Peptide E02P04] (H-NASSNVTDLSVNIGGHQAPD-NH2)
Cytotoxic activity in vitro (human tumor cells): + (Symbol + indicates the presence of cytotoxicity)
cytotoxic activity / inhibition of cellular proliferation (M14 (melanoma)): showed activity
cytotoxic activity / inhibition of cellular proliferation (M14 (melanoma); listed as E07P04): showed cytotoxic activity

CC(C)[C@H](NC(=O)[C@@H](NC(=O)[C@H](CC(=O)O)NC(=O)CN)[C@@H](C)O)C(=O)N[C@H]1CSSC[C@@H](C(=O)N[C@@H](CO)C(=O)N[C@H](C(=O)N[C@H](C(=O)N[C@@H](CO)C(N)=O)[C@@H](C)O)[C@@H](C)O)NC(=O)[C@H](Cc2ccccc2)NC(=O)[C@H](CC(=O)O)NC(=O)[C@H](CCCNC(=N)N)NC(=O)CNC(=O)[C@H]([C@@H](C)O)NC(=O)[C@H](CC(N)=O)NC(=O)[C@H](CO)NC(=O)[C@H](CC(N)=O)NC(=O)[C@H](Cc2ccccc2)NC(=O)CNC1=O [Peptide J08P46s-s] (H-GDTVCGFNSNTGRDFCSTTS-NH2; disulfide 5-16)
survival (TC-1 tumor): intermediate survival block
GI50 values [1]: nm range
effect on the cytotoxic activity of prodigiosin [1]: enhanced
decrease of the cytotoxic activity of prodigiosin on primary fibroblasts (primary fibroblasts): at least one order of magnitude

CC(C)C[C@@H]1NC(=O)[C@H](Cc2ccccc2)NC(=O)[C@H](CC(=O)O)NC(=O)[C@H](CCCNC(=N)N)NC(=O)CNC(=O)[C@H]([C@@H](C)O)NC(=O)[C@H](CC(N)=O)NC(=O)[C@H](CO)NC(=O)[C@H](CC(N)=O)NC(=O)[C@H](Cc2ccccc2)NC(=O)CNC(=O)[C@H](Cc2ccc(O)cc2)NC(=O)[C@H](C(C)C)NC(=O)[C@H]([C@@H](C)O)NC(=O)[C@H](CC(=O)O)NC(=O)CNC(=O)[C@@H](N)CSSC[C@@H](C(N)=O)NC(=O)[C@H](CO)NC(=O)[C@H]([C@@H](C)O)NC(=O)[C@H]([C@@H](C)O)NC(=O)[C@H](CO)NC1=O [Peptide N06P89] (H-CGDTVYGFNSNTGRDFLSTTSC-NH2; disulfide 1-22)
cytotoxic activity / inhibition of cellular proliferation (M14 (melanoma)): inability; also recorded: loss of peptide's biological activity
